Source: PubChem BioAssay AID2060501 (Molecular Pharmacology Branch, DTP, NCI, 2025)

Test system: 282377-053-R-J1-PDC complex spheroids, viability
Test: Anticancer human tumor 282377-053-R-J1-PDC patient-derived colon adenocarcinoma cell line growth inhibition [GQUAD]
Conditions: for IC50: curve of first compound; for viability, T/C: stronger effect = lower value; active = viability on the fitted dose curve at most 10% of control; inactive = the rest
How it was run: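 Tumor cells were grown as complex spheroids with HUVEC endothelial cells and mesenchymal stem cells as stroma. G-quadruplex stabilizers were combined with targeted agents over half-log dilutions from near the clinical Cmax, or from 10 microM.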

[1] = second compound 0.0316 µM, first compound 0.0316 µM
[2] = second compound 0.0316 µM, first compound 0.316 µM
[3] = second compound 0.1 µM, first compound 0.0316 µM
[4] = second compound 0.1 µM, first compound 0.316 µM
[5] = second compound 0.316 µM, first compound 0.0316 µM
[6] = second compound 0.316 µM, first compound 0.316 µM
[7] = second compound 1 µM, first compound 0.0316 µM
[8] = second compound 1 µM, first compound 0.316 µM
[9] = second compound 3.16 µM, first compound 0.0316 µM
[10] = second compound 3.16 µM, first compound 0.316 µM
[11] = second compound 10 µM, first compound 0.0316 µM
[12] = second compound 10 µM, first compound 0.316 µM
[13] = second compound 0.0316 µM, first compound 0.1 µM
[14] = second compound 0.0316 µM, first compound 1 µM
[15] = second compound 0.0316 µM, first compound 3.16 µM
[16] = second compound 0.0316 µM, first compound 10 µM
[17] = second compound 0.1 µM, first compound 0.1 µM
[18] = second compound 0.1 µM, first compound 1 µM
[19] = second compound 0.1 µM, first compound 3.16 µM
[20] = second compound 0.1 µM, first compound 10 µM
[21] = second compound 0.316 µM, first compound 0.1 µM
[22] = second compound 0.316 µM, first compound 1 µM
[23] = second compound 0.316 µM, first compound 3.16 µM
[24] = second compound 0.316 µM, first compound 10 µM
[25] = second compound 1 µM, first compound 0.1 µM
[26] = second compound 1 µM, first compound 1 µM
[27] = second compound 1 µM, first compound 3.16 µM
[28] = second compound 1 µM, first compound 10 µM
[29] = second compound 3.16 µM, first compound 0.1 µM
[30] = second compound 3.16 µM, first compound 1 µM
[31] = second compound 3.16 µM, first compound 3.16 µM
[32] = second compound 3.16 µM, first compound 10 µM
[33] = second compound 10 µM, first compound 0.1 µM
[34] = second compound 10 µM, first compound 1 µM
[35] = second compound 10 µM, first compound 3.16 µM
[36] = second compound 10 µM, first compound 10 µM
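Also: spheroids exposed to compounds for 7 days before readout.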
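For viability, T/C in this document: percent of vehicle DMSO control viability with 100% = untreated-like growth.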

CCc1c2c(nc3ccc(O)cc13)-c1cc3c(c(=O)n1C2)COC(=O)[C@]3(O)CC + Cc1cnc(CNC(=O)c2c(=O)c3ccc(N4CCCN(C)CC4)nc3n3c2sc2ccccc23)cn1
0.0369 µM: IC50 (second compound 0.0316 µM)
0.0498 µM: IC50 (second compound 0.1 µM)
< 0.000999 µM: IC50 (second compound 3.16 µM) | IC50 (second compound 10 µM)
inactive: viability, T/C (second compound 0.0316 µM, first compound 0.000999 µM) 117% | viability, T/C (second compound 0.0316 µM, first compound 0.00316 µM) 96.3% | viability, T/C (second compound 0.0316 µM, first compound 0.00999 µM) 57.4% | viability, T/C [1] 56.4% | viability, T/C (second compound 0.0316 µM, first compound 0.0999 µM) 43.5% | viability, T/C [2] 27.2% | viability, T/C (second compound 0.1 µM, first compound 0.000999 µM) 88.4% | viability, T/C (second compound 0.1 µM, first compound 0.00316 µM) 79.4% | viability, T/C (second compound 0.1 µM, first compound 0.00999 µM) 57.3% | viability, T/C [3] 59.4% | viability, T/C (second compound 0.1 µM, first compound 0.0999 µM) 46.5% | viability, T/C [4] 27.9% | viability, T/C (second compound 0.316 µM, first compound 0.000999 µM) 81.8% | viability, T/C (second compound 0.316 µM, first compound 0.00316 µM) 67.9% | viability, T/C (second compound 0.316 µM, first compound 0.00999 µM) 55% | viability, T/C [5] 51.5% | viability, T/C (second compound 0.316 µM, first compound 0.0999 µM) 38.5% | viability, T/C [6] 28.8% | viability, T/C (second compound 1 µM, first compound 0.000999 µM) 66% | viability, T/C (second compound 1 µM, first compound 0.00316 µM) 58.1% | viability, T/C (second compound 1 µM, first compound 0.00999 µM) 44.4% | viability, T/C [7] 42.9% | viability, T/C (second compound 1 µM, first compound 0.0999 µM) 35.9% | viability, T/C [8] 25.1% | viability, T/C (second compound 3.16 µM, first compound 0.000999 µM) 46.6% | viability, T/C (second compound 3.16 µM, first compound 0.00316 µM) 41.5% | viability, T/C (second compound 3.16 µM, first compound 0.00999 µM) 37.5% | viability, T/C [9] 40.9% | viability, T/C (second compound 3.16 µM, first compound 0.0999 µM) 33.4% | viability, T/C [10] 19.4% | viability, T/C (second compound 10 µM, first compound 0.000999 µM) 46.6% | viability, T/C (second compound 10 µM, first compound 0.00316 µM) 38.4% | viability, T/C (second compound 10 µM, first compound 0.00999 µM) 38.9% | viability, T/C [11] 40.9% | viability, T/C (second compound 10 µM, first compound 0.0999 µM) 32.6% | viability, T/C [12] 11.1%
0.00872 µM: IC50 (second compound 1 µM)
0.0248 µM: IC50 (second compound 0.316 µM)

CC1COCCN1c1cc(C2(S(C)(=N)=O)CC2)nc(-c2ccnc3[nH]ccc23)n1 (stereo unspecified) + Cc1[nH]c2ccc(F)cc2c1-c1nc2c3cccnc3c3ncccc3c2[nH]1
< 0.0316 µM: IC50 (second compound 10 µM)
inactive: viability, T/C [1] 85.5% | viability, T/C [13] 83.7% | viability, T/C [2] 101% | viability, T/C [14] 81.8% | viability, T/C [15] 78.5% | viability, T/C [16] 55.6% | viability, T/C [3] 90% | viability, T/C [17] 91.8% | viability, T/C [4] 82% | viability, T/C [18] 94.8% | viability, T/C [19] 61.8% | viability, T/C [20] 48.5% | viability, T/C [5] 94.5% | viability, T/C [21] 97.3% | viability, T/C [6] 65.4% | viability, T/C [22] 69.5% | viability, T/C [23] 84.5% | viability, T/C [24] 49.6% | viability, T/C [7] 100% | viability, T/C [25] 81.4% | viability, T/C [8] 87.3% | viability, T/C [26] 86.2% | viability, T/C [27] 57.7% | viability, T/C [28] 38.1% | viability, T/C [9] 65.2% | viability, T/C [29] 71% | viability, T/C [10] 56.2% | viability, T/C [30] 47.8% | viability, T/C [31] 31.9% | viability, T/C [32] 10.4% | viability, T/C [11] 41.6% | viability, T/C [33] 41% | viability, T/C [12] 49.8% | viability, T/C [34] 29.5% | viability, T/C [35] 18.1%
4.98 µM: IC50 (second compound 1 µM)
0.822 µM: IC50 (second compound 3.16 µM)
active: viability, T/C [36] 6.17%
> 10 µM: IC50 (second compound 0.0316 µM) | IC50 (second compound 0.316 µM)
8.74 µM: IC50 (second compound 0.1 µM)

CCCS(=O)(=O)Nc1ccc(F)c(C(=O)c2c[nH]c3ncc(-c4ccc(Cl)cc4)cc23)c1F + CN(C)c1ccc(Nc2c3ccc(NC(=O)CCN4CCCC4)cc3nc3cc(NC(=O)CCN4CCCC4)ccc23)cc1
3.32 µM: IC50 (second compound 3.16 µM)
3.74 µM: IC50 (second compound 10 µM)
inactive: viability, T/C [1] 81% | viability, T/C [13] 66% | viability, T/C [2] 58% | viability, T/C [14] 69.9% | viability, T/C [15] 64.5% | viability, T/C [16] 16.9% | viability, T/C [3] 68.1% | viability, T/C [17] 56% | viability, T/C [4] 59.3% | viability, T/C [18] 61.4% | viability, T/C [19] 52.8% | viability, T/C [20] 19.4% | viability, T/C [5] 74.8% | viability, T/C [21] 65.7% | viability, T/C [6] 74.7% | viability, T/C [22] 49.3% | viability, T/C [23] 57.2% | viability, T/C [24] 15.6% | viability, T/C [7] 79.8% | viability, T/C [25] 60.9% | viability, T/C [8] 89.3% | viability, T/C [26] 57.6% | viability, T/C [27] 59.2% | viability, T/C [28] 23.6% | viability, T/C [9] 73.3% | viability, T/C [29] 72.5% | viability, T/C [10] 68.7% | viability, T/C [30] 67.1% | viability, T/C [31] 50.6% | viability, T/C [32] 21.6% | viability, T/C [11] 82.1% | viability, T/C [33] 70.6% | viability, T/C [12] 75.6% | viability, T/C [34] 52.3% | viability, T/C [35] 65% | viability, T/C [36] 14.2%
3.87 µM: IC50 (second compound 1 µM)
3.49 µM: IC50 (second compound 0.1 µM)
2.96 µM: IC50 (second compound 0.316 µM)
4.49 µM: IC50 (second compound 0.0316 µM)
